Assay results reported in US12053451B2, “Arginase inhibitors and their therapeutic applications” (OncoArendi Therapeutics S.A., priority 2016, dated 2024).
Where a name gives a salt, the structure may show the parent alone.

Key:
[1] = molecular target: T1, recombinant human arginase 2 (Homo sapiens, UniProt P78540); assay: Human arginase activity assay (urea measurement), arginase 2; assay type: biochemical; conditions: for selected examples class estimated from % of inhibition at 1 μM and 100 μM, * = most potent diastereoisomer or mixture of diastereoisomers, read-out: Activity Class (ARG II)
T1 construct: made in house; host or cells: CHO
T1 sequence (P78540 23-354): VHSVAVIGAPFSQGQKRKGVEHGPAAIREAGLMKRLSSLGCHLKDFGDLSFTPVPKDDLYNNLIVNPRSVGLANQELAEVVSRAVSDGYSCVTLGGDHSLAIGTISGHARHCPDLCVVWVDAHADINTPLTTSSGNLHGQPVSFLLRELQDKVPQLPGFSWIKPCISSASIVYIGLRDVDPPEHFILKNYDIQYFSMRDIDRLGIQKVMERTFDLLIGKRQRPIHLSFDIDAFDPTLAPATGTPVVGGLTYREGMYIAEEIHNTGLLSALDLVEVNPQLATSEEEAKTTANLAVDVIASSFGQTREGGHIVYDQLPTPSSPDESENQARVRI
Method: (§1) Human Arginase Activity Assay
An enzymatic assay with recombinant human arginases 1 (Biolegend, Cat. No. 552502) and 2 (homemade in eukaryotic expression system of CHO, purified by FPLC) was used in order to assess inhibitory activity of the compounds. The assay was run in the 96-well plate format, each reaction in the total volume of 100 uL. The assay is based on urea measurement, which is a product of L-arginine enzymatic degradation. (Baggio et al. J Pharmacol. Exp. Ther. 1999, 290, 1409-1416). The color product is developed by adding a mixture of reagent A (4 mM oPA in 50 mM boric acid in 1M sulfuric acid, 0.03% Brij-35) and reagent B (4 mM NED in 50 mM boric acid in 1M sulfuric acid, 0.03% Brij-35) in equal proportions. The absorbance for each well was measured at 530 nm.
(§2) Briefly, to each well of a 96-well microtiter plate 40 μL of enzyme in the reaction assay buffer (pH 7.4, 100 mM sodium phosphate buffer, 130 mM NaCl, 1 mg/mL albumin), 50 μL of the test compound solution and 10 μL of enzyme substrate solution (L-arginine hydrochloride, natural pH 5.6, final concentration 20 mM and a cofactor—manganese chloride, final concentration 150 μM) was added. For positive control, only the enzyme and substrate were used, the negative controls contained substrate solution with assay buffer. After incubating the microtiter plate at 37° C. for 60 min 150 μL of mixed reagents A and B was added to each well to stop the reaction. Absorbance was measured (λ=530 nm) 20 minutes later, after color development. The urea production in the absence of any compound was considered the maximum arginase activity. The absorbance in the absence of arginase (background) was subtracted from all the values. The normalized OD was used to generate a concentration-response curve by plotting the percent of inhibition against log[concentration] of the compound and using regression analysis (GraphPad Prism 7.0) to compute the IC50 values.
For selected examples the activity class for ARG2 was estimated based on % of inhibition for 1 μM and 100 μM concentration of tested compounds.

[2] = molecular target: T2, recombinant human arginase 1 (Homo sapiens, UniProt P05089); assay: Human arginase activity assay (urea measurement), arginase 1; assay type: biochemical; conditions: recombinant human arginase 1, pH 7.4, 37° C., 60 min; * = value for the most potent diastereoisomer or the mixture of diastereoisomers; read-out: Activity Class (ARG I)
T2 construct: purchased Biolegend 552502
T2 sequence (P05089 1-322): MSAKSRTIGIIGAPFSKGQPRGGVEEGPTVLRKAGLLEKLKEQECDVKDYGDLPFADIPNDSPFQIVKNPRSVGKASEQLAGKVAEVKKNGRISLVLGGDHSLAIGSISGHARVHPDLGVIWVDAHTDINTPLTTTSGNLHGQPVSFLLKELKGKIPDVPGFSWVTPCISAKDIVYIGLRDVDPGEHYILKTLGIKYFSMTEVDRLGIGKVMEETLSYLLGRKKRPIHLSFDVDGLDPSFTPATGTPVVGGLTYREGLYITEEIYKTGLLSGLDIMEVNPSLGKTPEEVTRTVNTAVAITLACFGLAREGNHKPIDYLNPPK
Method: as §1
The assay was run in the 96-well plate format, each reaction in the total volume of 100 uL. The assay is based on urea measurement, which is a product of L-arginine enzymatic degradation. […] The color product is developed by adding a mixture of reagent A (4 mM oPA in 50 mM boric acid in 1M sulfuric acid, 0.03% Brij-35) and reagent B (4 mM NED in 50 mM boric acid in 1M sulfuric acid, 0.03% Brij-35) in equal proportions. The absorbance for each well was measured at 530 nm.
as §2, with “For” for “Briefly, to each well of a 96-well microtiter plate 40 μL of enzyme in the reaction assay buffer (pH 7.4, 100 mM sodium phosphate buffer, 130 mM NaCl, 1 mg/mL albumin), 50 μL of the test compound solution and 10 μL of enzyme substrate solution (L-arginine hydrochloride, natural pH 5.6, final concentration 20 mM and a cofactor—manganese chloride, final concentration 150 μM) was added. For”

Compound | IC50 [1] [µM] | IC50 [2] [µM]
NC1(C(=O)O)CCC(CCB(O)O)C1 (racemic) [Example 1, 1-amino-3-(2-boronoethyl)cyclopentane-1-carboxylic acid] | 1 to 10 | –
C[C@H]1[C@H](CCB(O)O)CCC1(N)C(=O)O (mixture of isomers) [Example 2, rac-(2S,3R)-1-amino-3-(2-boronoethyl)-2-methylcyclopentane-1-carboxylic acid] | > 100 | > 100
CC1(CCB(O)O)CCC(N)(C(=O)O)C1 (racemic) [Example 3, 1-amino-3-(2-boronoethyl)-3-methylcyclopentane-1-carboxylic acid] | > 100 | > 100
N[C@@]1(C(=O)O)C[C@H](CCB(O)O)[C@@H](O)C1 (racemic) [Example 4, rac-(1S,3S,4S)-1-Amino-3-(2-boronoethyl)-4-hydroxycyclopentane-1-carboxylic acid hydrochloride] | 10 to 100 | 10 to 100
N[C@]1(C(=O)O)C[C@H](CCB(O)O)[C@@H](O)C1 (racemic) [Example 5, rac-(1R,3S,4S)-1-Amino-3-(2-boronoethyl)-4-hydroxycyclopentane-1-carboxylic acid hydrochloride] | > 100 | > 100
N[C@]1(C(=O)O)CCC[C@@H](CCB(O)O)C1 (racemic) [Example 11, rac-(1R,3R)-1-Amino-3-(2-boronoethyl)cyclohexane-1-carboxylic acid hydrochloride] | – | 10 to 100
N[C@@]1(C(=O)O)C[C@H](CCB(O)O)CC[C@H]1O (racemic) [Example 14, rac-(1S,2R,5R)-1-Amino-5-(2-boronoethyl)-2-hydroxycyclohexane-1-carboxylic acid hydrochloride] | – | 10 to 100
N[C@@]1(C(=O)O)CNC[C@H](CCB(O)O)C1 (racemic) [Example 58, rac-(3R,5R)-3-amino-5-(2-boronoethyl)piperidine-3-carboxylic acid] | – | 10 to 100
N[C@@]1(C(=O)O)COC[C@H](CCB(O)O)C1 (racemic) [Example 60, rac-(3R,5R)-3-amino-5-(2-boronoethyl)tetrahydro-2H-pyran-3-carboxylic acid hydrochloride] | – | 10 to 100
CN(C)C1CCC(CCB(O)O)CC1(N)C(=O)O (racemic) [Example 64, rac-(1R,5R)-1-amino-5-(2-boronoethyl)-2-(dimethylamino)cyclohexane-1-carboxylic acid dihydrochloride] | – | 10 to 100
CN(C)CC1CC(CCB(O)O)CC1(N)C(=O)O (racemic) [Example 67, 1-amino-4-(2-boronoethyl)-2-((dimethylamino)methyl)cyclopentane-1-carboxylic acid] | – | 10 to 100
NC1(C(=O)O)CC(CCB(O)O)N(Cc2ccccc2)C1 (centres unmarked) [Example 8, 3-Amino-1-benzyl-5-(2-boronoethyl)pyrrolidine-3-carboxylic acid dihydrochloride] | – | > 100
CC([C@@H]1CC[C@@H](CCB(O)O)C[C@]1(N)C(=O)O)N(C)C (stereo partly drawn) [Example 42, (1R,2S,5R)-1-amino-5-(2-boronoethyl)-2-(1-(dimethylamino)ethyl)cyclohexanecarboxylic acid dihydrochloride] | – | 10 to 100
COC(=O)[C@@]1(N)C[C@H](CCB(O)O)CC[C@H]1CN(C)C [Example 43, (2-((1R,3R,4S)-3-amino-4-((dimethylamino)methyl)-3-(methoxycarbonyl)cyclohexyl)ethyl)boronic acid dihydrochloride] | – | 10 to 100

Next, values leading:

IC50 [1] [µM] | IC50 [2] [µM] | Compound
1 to 10 | 1 to 10 | NC[C@H]1C[C@](N)(C(=O)O)C[C@@H]1CCB(O)O (racemic) [Example 6, rac-(1S,3S,4S)-1-Amino-3-(aminomethyl)-4-(2-boronoethyl)cyclopentane-1-carboxylic acid dihydrochloride]
– | 1 to 10 | NC[C@H]1C[C@@](N)(C(=O)O)C[C@@H]1CCB(O)O (racemic) [Example 7, rac-(1R,3S,4S)-1-Amino-3-(aminomethyl)-4-(2-boronoethyl)cyclopentane-1-carboxylic acid dihydrochloride]
10 to 100 | 0.1 to 1 | N[C@]1(C(=O)O)C[C@H](CCB(O)O)CC[C@H]1O (racemic) [Example 13, rac-(1R,2R,5R)-1-Amino-5-(2-boronoethyl)-2-hydroxycyclohexane-1-carboxylic acid hydrochloride]
– | 0.001 to 0.1 | CN(C)C[C@@H]1CC[C@@H](CCB(O)O)C[C@]1(N)C(=O)O (racemic) [Example 17, rac-(1R,2S,5R)-1-Amino-5-(2-boronoethyl)-2-((dimethylamino)methyl)-cyclohexane-1-carboxylic acid dihydrochloride]
– | 0.001 to 0.1 | NC1(C(=O)O)CC(CCB(O)O)CCC1CCN1CCCC1 (racemic) [Example 25, 1-Amino-5-(2-boronoethyl)-2-(2-(pyrrolidin-1-yl)ethyl)cyclohexane-1-carboxylic acid dihydrochloride]
– | 0.1 to 1 | N[C@]1(C(=O)O)C[C@H](CCB(O)O)CC[C@H]1CN1CCC(c2ccc(Cl)cc2)CC1 (racemic) [Example 27, rac-(1R,2S,5R)-1-amino-5-(2-boronoethyl)-2-((4-(4-chlorophenyl)piperidin-1-yl)methyl)cyclohexanecarboxylic acid dihydrochloride]
– | 0.1 to 1 | N[C@]1(C(=O)O)C[C@H](CCB(O)O)CC[C@H]1CN1Cc2ccccc2C1 (racemic) [Example 29, rac-(1R,2S,5R)-1-amino-5-(2-boronoethyl)-2-(isoindolin-2-ylmethyl)cyclohexanecarboxylic acid dihydrochloride]
– | 1 to 10 | CN(C)C[C@@H]1C[C@@H](CCB(O)O)CC(N)(C(=O)O)C1 (mixture of isomers) [Example 55, rac-(3R,5R)-1-amino-3-(2-boronoethyl)-5-((dimethylamino)methyl)cyclohexanecarboxylic acid dihydrochloride]
– | 1 to 10 | NC1(C(=O)O)CC(CCB(O)O)CCC1CN1CCOCC1 (centres unmarked) [Example 20, 1-Amino-5-(2-boronoethyl)-2-(morpholinomethyl)cyclohexane-1-carboxylic acid dihydrochloride]
– | 0.001 to 0.1 | N[C@]1(C(=O)O)C[C@H](CCB(O)O)CC[C@H]1CN1CCCC1 [Example 23, (1R,2S,5R)-1-Amino-5-(2-boronoethyl)-2-(pyrrolidin-1-ylmethyl)-cyclohexane-1-carboxylic acid dihydrochloride]
– | 1 to 10 | NC1(C(=O)O)CC(CCB(O)O)CCC1CO (centres unmarked) [Example 49, 1-amino-5-(2-boronoethyl)-2-(hydroxymethyl)cyclohexanecarboxylic acid hydrochloride]
– | 0.1 to 1 | NCC1CC(CCB(O)O)CC1(N)C(=O)O (centres unmarked) [Example 66, 1-amino-2-(aminomethyl)-4-(2-boronoethyl)cyclopentane-1-carboxylic acid dihydrochloride]
